Data on five compounds can be found in patent US20150344540A1, “NOVEL GLP-1 RECEPTOR AGONISTS WITH CHOLESTEROL EFFLUX ACTIVITY” (NOVO NORDISK A/S, priority 2012, published 2015).

Read-outs that look alike come from different tables or passages of the source. Where a SMILES comes first, the peptide text is derived from it. [ ]: non-standard residue; d: D form. Aib = CC(C)(N)C(=O)O

Broadly, the Vd is a proportionality between amount in the body and measured concentration, not a real space. One may read the clearance as a measure of how efficiently the substance is removed, as volume per time. As a reminder, the half-life is how long it takes for the measured level to halve. Low readings indicate rapid decline, high ones slow decline. What is called EC50 is the concentration at which the effect is half-maximal.

Data set [1] can be described thus: Pharmacokinetics in mini-pigs after i.v. administration. The settings on record: female, Göttingen, minipig, iv, 5 nmol/kg. The source says: The aim of the study is to assess the pharmacokinetic properties of the compounds of the invention, in mini-pigs.
Göttingen mini-pigs female, 15-20 kg, purchased from Ellegaard Mini-pigs, Denmark, were housed in the Animal Unit, Novo Nordisk A/S and were kept and handled according to normal procedure in the Animal Unit. After minimum 2 weeks of acclimatization two permanent central venous catheters were implemented in vena cava caudalis in each animal. After surgery the animals were in their normal individual pens during the pharmacokinetic experiments.
Intravenous injections were given through the central short catheter, which was flushed with min 10 ml of sterile saline post administration. The test substance was dosed at 5 nmol/kg, N=3, in a volume of 0.05 ml/kg.
On day 1 the catheters are coupled to extension tubes, which will be removed at the end of day 1.
Samples were kept on wet ice until centrifugation (10 min, 4° C., 1942 g). Afterwards, plasma (min. 100 μl) was transferred immediately to Micronic tubes and kept at −20° C. until analysis. The plasma samples were analysed by an immunoaasay described below.
The plasma concentrations of the peptides with intact N-terminus were determined using a Luminescence Oxygen Chanelling Immuno-assay (LOCI). The donor beads were coated with streptavidin, while acceptor beads were conjugated with a monoclonal antibody recognizing a mid-/C-terminal epitope of the peptide. The other monoclonal antibody, specific for the N-terminus, was biotinylated. The three reactants were combined with the analyte and formed a two-sited immuno-complex. Illumination of the complex released singlet oxygen atoms from the donor beads, which were channeled into the acceptor beads and triggered chemi-luminescence which was measured in an Envision plate reader. The amount of light was proportional to the concentration of the compound.
Plasma concentration-time profiles was analysed by a non-compartmental pharmacokinetics analysis using Phoenix (Pharsight Inc., Mountain View, Calif., USA). Calculations were performed using individual concentration-time values from each animal.

For data set [2], the system named is Mouse monocyte/macrophage cell line, RAW 264.7. The data set is described as follows: Cholesterol efflux assay (3H-cholesterol, macrophage cell line). It is filed as cell-based. The settings on record: RAW 264.7, 4 hrs incubation, 0.1% human serum albumin; for 4 h Cholesterol Efflux Emax: ABCA1-mediated efflux; for EC50: read-out: 4 h Cholesterol Efflux EC50, ABCA1-mediated efflux (CPT-cAMP induced minus non-induced).

The next data set has as its target human GLP-1 receptor (Homo sapiens, UniProt P43220). The data set is described as follows: Functional GLP-1 receptor assay, in vitro potency (CRE luciferase; whole cells). It is filed as cell-based. The settings on record: BHK cells expressing human GLP-1 receptor.
[3] abbreviates: plasma, T1/2 Mean Value, Göttingen mini-pigs, N=3.
[4] abbreviates: 0% HSA, read-out: GLP1R CRE luc 0% HSA EC50 Mean Value.
[5] abbreviates: GLP1R CRE luc 1% HSA EC50 Mean Value, 1% HSA.

Chain of human GLP-1 receptor (P43220 24-463): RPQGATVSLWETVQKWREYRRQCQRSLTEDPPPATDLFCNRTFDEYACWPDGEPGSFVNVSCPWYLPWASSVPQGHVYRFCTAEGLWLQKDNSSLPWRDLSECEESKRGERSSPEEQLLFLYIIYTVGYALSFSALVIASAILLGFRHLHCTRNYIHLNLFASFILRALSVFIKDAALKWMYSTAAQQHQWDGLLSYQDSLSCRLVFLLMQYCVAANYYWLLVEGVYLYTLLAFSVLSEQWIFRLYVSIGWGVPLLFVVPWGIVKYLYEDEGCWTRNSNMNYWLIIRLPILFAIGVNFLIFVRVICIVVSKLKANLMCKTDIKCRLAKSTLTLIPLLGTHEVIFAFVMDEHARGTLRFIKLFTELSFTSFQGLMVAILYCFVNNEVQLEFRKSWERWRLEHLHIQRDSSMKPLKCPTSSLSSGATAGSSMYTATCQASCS

Take `CC[C@H](C)[C@H](NC(=O)[C@H](Cc1ccccc1)NC(=O)[C@H](CCC(=O)O)NC(=O)[C@H](CCCCN)NC(=O)[C@H](C)NC(=O)[C@H](C)NC(=O)[C@H](CCC(=O)O)NC(=O)CNC(=O)[C@H](CCC(=O)O)NC(=O)[C@H](CC(C)C)NC(=O)[C@H](Cc1ccc(O)cc1)NC(=O)[C@H](CO)NC(=O)[C@H](CO)NC(=O)[C@@H](NC(=O)[C@H](CC(=O)O)NC(=O)[C@H](CO)NC(=O)[C@@H](NC(=O)[C@H](Cc1ccccc1)NC(=O)[C@@H](NC(=O)CNC(=O)[C@H](CCC(=O)O)NC(=O)C(C)(C)NC(=O)[C@@H](N)Cc1c[nH]cn1)[C@@H](C)O)[C@@H](C)O)C(C)C)C(=O)N[C@@H](C)C(=O)N[C@@H](Cc1c[nH]c2ccccc12)C(=O)N[C@@H](CC(C)C)C(=O)N[C@H](C(=O)N[C@@H](CCC(=O)O)C(=O)N[C@@H](CCCCN)C(=O)NC(C)(C)C(=O)N[C@@H](CCCCN)C(=O)N[C@@H](CCC(=O)O)C(=O)N[C@@H](Cc1ccccc1)C(=O)N[C@@H](CC(C)C)C(N)=O)C(C)C` [Compound 8, [Aib8,Glu23,Glu34,Lys35,Aib36,Lys37]-GLP-1-(7-37)-peptidyl-Glu-Phe-Leu amide] (H-H[Aib]EGTFTSDVSSYLEGEAAKEFIAWLVEK[Aib]KEFL-NH2): in data set [1] (plasma), the C0 was found to be 79.7 nM, the Vd was found to be 0.152 L/kg and the clearance is 3.09 mL/h/kg. In addition, in data set [1] (plasma, T1/2, mini-pigs), the half-life is 32.8 h. In data set [1] (setting [3]), this compound gave a half-life of 32.9 h. The “4 h Cholesterol Efflux Emax” value in data set [2] is given as 100%. The EC50 on human GLP-1 receptor (setting [4]) came to 0.163 nM.
In data set [1] (plasma), `CC[C@H](C)[C@H](NC(=O)[C@H](Cc1ccccc1)NC(=O)[C@H](CCC(=O)O)NC(=O)[C@H](CCCCN)NC(=O)[C@@H](NC(=O)[C@H](C)NC(=O)[C@H](CCC(=O)O)NC(=O)CNC(=O)[C@H](CCC(=O)O)NC(=O)[C@H](CC(C)C)NC(=O)[C@H](Cc1ccc(O)cc1)NC(=O)[C@H](CO)NC(=O)[C@H](CO)NC(=O)[C@@H](NC(=O)[C@H](CC(=O)O)NC(=O)[C@H](CO)NC(=O)[C@@H](NC(=O)[C@H](Cc1ccccc1)NC(=O)[C@@H](NC(=O)CNC(=O)[C@H](CCC(=O)O)NC(=O)C(C)(C)NC(=O)[C@@H](N)Cc1c[nH]cn1)[C@@H](C)O)[C@@H](C)O)C(C)C)C(C)C)C(=O)N[C@@H](C)C(=O)N[C@@H](Cc1c[nH]c2ccccc12)C(=O)N[C@@H](CC(C)C)C(=O)N[C@H](C(=O)N[C@@H](CCC(=O)O)C(=O)N[C@@H](CCCCN)C(=O)NC(C)(C)C(=O)N[C@@H](CCCCN)C(N)=O)C(C)C` [Compound 11, [Aib8,Glu23,Val25,Glu34,Lys35,Aib36,Lys37]-GLP-1-(7-37)-peptide amide] (H-H[Aib]EGTFTSDVSSYLEGEAVKEFIAWLVEK[Aib]K-NH2) had a C0 of 115 nM, a distribution volume (Vd) of 0.0613 L/kg and a clearance of 54.9 mL/h/kg. Also, in data set [1] (setting [3]), the half-life is 0.8 h. Further, in data set [2], the “4 h Cholesterol Efflux Emax” value was found to be 135%. For the same compound, the EC50 at human GLP-1 receptor (setting [4]) was 0.015 nM. Also, it took 0.004 nM to reach a half-maximal effect at human GLP-1 receptor (setting [5]) (EC50).
Regarding `CC(C)C[C@H](NC(=O)[C@H](Cc1ccccc1)NC(=O)[C@H](CCC(=O)O)NC(=O)[C@H](CCCCN)NC(=O)C(C)(C)NC(=O)[C@H](CCCCN)NC(=O)[C@H](CCC(=O)O)NC(=O)[C@H](CC(C)C)NC(=O)[C@H](CC(C)C)NC(=O)[C@H](Cc1c[nH]c2ccccc12)NC(=O)[C@H](CCC(N)=O)NC(=O)[C@@H](NC(=O)[C@H](Cc1ccccc1)NC(=O)[C@H](CCC(=O)O)NC(=O)[C@H](CCCNC(=N)N)NC(=O)[C@H](C)NC(=O)[C@H](C)NC(=O)[C@H](CCCCN)NC(=O)[C@H](CO)NC(=O)[C@H](CC(=O)O)NC(=O)[C@H](CC(C)C)NC(=O)[C@H](Cc1ccc(O)cc1)NC(=O)[C@H](CCCCN)NC(=O)[C@H](CO)NC(=O)[C@H](Cc1ccc(O)cc1)NC(=O)[C@H](CC(=O)O)NC(=O)[C@H](CO)NC(=O)[C@@H](NC(=O)[C@H](Cc1ccccc1)NC(=O)[C@@H](NC(=O)CNC(=O)[C@H](CCC(N)=O)NC(=O)C(C)(C)NC(=O)[C@@H](N)Cc1c[nH]cn1)[C@@H](C)O)[C@@H](C)O)C(C)C)C(N)=O` [Compound 26] (H-H[Aib]QGTFTSDYSKYLDSKAAREFVQWLLEK[Aib]KEFL-NH2), in data set [1] (in vivo), the C0 was determined as 123 nM, the Vd is 0.0549 L/kg, the clearance was 5.21 mL/h/kg and the half-life is 7.3 h. In data set [2], the “4 h Cholesterol Efflux Emax” value was found to be 87% and the EC50 was 200 nM. For the same compound, the EC50 at human GLP-1 receptor (GLP1R CRE luc 0% HSA EC50 Mean Value, 0% HSA) was found to be 0.393 nM. This compound had an EC50 at human GLP-1 receptor (setting [5]) of 0.153 nM.
For the compound `CC[C@H](C)[C@H](NC(=O)[C@H](Cc1ccccc1)NC(=O)[C@H](CCC(=O)O)NC(=O)[C@H](CCCCN)NC(=O)[C@@H](NC(=O)[C@H](C)NC(=O)[C@H](CCC(=O)O)NC(=O)CNC(=O)[C@H](CCC(=O)O)NC(=O)[C@H](CC(C)C)NC(=O)[C@H](Cc1ccc(O)cc1)NC(=O)[C@H](CO)NC(=O)[C@H](CO)NC(=O)[C@@H](NC(=O)[C@H](CC(=O)O)NC(=O)[C@H](CO)NC(=O)[C@@H](NC(=O)[C@H](Cc1ccccc1)NC(=O)[C@@H](NC(=O)CNC(=O)[C@H](CCC(=O)O)NC(=O)C(C)(C)NC(=O)[C@@H](N)Cc1c[nH]cn1)[C@@H](C)O)[C@@H](C)O)C(C)C)C(C)C)C(=O)N[C@@H](C)C(=O)N[C@@H](Cc1c[nH]c2ccccc12)C(=O)N[C@@H](CC(C)C)C(=O)N[C@H](C(=O)N[C@@H](CCC(=O)O)C(=O)N[C@@H](CCCCN)C(=O)NC(C)(C)C(=O)N[C@@H](CCCCN)C(=O)N[C@@H](CCC(=O)O)C(=O)N[C@@H](Cc1ccccc1)C(=O)N[C@@H](CC(C)C)C(=O)N[C@@H](CCC(=O)O)C(=O)N[C@@H](CCCCN)C(=O)N[C@H](C(=O)N[C@@H](CCCCN)C(=O)N[C@@H](CCC(=O)O)C(=O)N[C@@H](Cc1ccccc1)C(N)=O)C(C)C)C(C)C` [Compound 61], in data set [1] (plasma), the C0 is 53.3 nM, the Vd is 0.27 L/kg and the clearance was 5.9 mL/h/kg. Also, the half-life in data set [1] (setting [3]) was 31.8 h. For the same compound, the “4 h Cholesterol Efflux Emax” value in data set [2] was 82%.
In data set [1] (in vivo), `CC[C@H](C)[C@H](NC(=O)[C@H](Cc1ccccc1)NC(=O)[C@H](CCC(=O)O)NC(=O)[C@H](CCCCN)NC(=O)[C@@H](NC(=O)[C@H](C)NC(=O)[C@H](CCC(=O)O)NC(=O)CNC(=O)[C@H](CCC(=O)O)NC(=O)[C@H](CC(C)C)NC(=O)[C@H](Cc1ccc(O)cc1)NC(=O)[C@H](CO)NC(=O)[C@H](CO)NC(=O)[C@@H](NC(=O)[C@H](CC(=O)O)NC(=O)[C@H](CO)NC(=O)[C@@H](NC(=O)[C@H](Cc1ccccc1)NC(=O)[C@@H](NC(=O)CNC(=O)[C@H](CCC(=O)O)NC(=O)C(C)(C)NC(=O)[C@@H](N)Cc1c[nH]cn1)[C@@H](C)O)[C@@H](C)O)C(C)C)C(C)C)C(=O)N[C@@H](C)C(=O)N[C@@H](Cc1c[nH]c2ccccc12)C(=O)N[C@@H](CC(C)C)C(=O)N[C@H](C(=O)N[C@@H](CCC(=O)O)C(=O)N[C@@H](CCCCN)C(=O)NC(C)(C)C(=O)N[C@@H](CCCCN)C(=O)N[C@@H](CCC(=O)O)C(=O)N[C@@H](Cc1ccccc1)C(=O)N[C@@H](CC(C)C)C(=O)N[C@@H](CCC(=O)O)C(=O)N[C@@H](CCCCN)C(=O)O)C(C)C` [Compound 99, [Aib8,Glu23,Val25,Glu34,Lys35,Aib36,Lys37]-GLP-1-(7-37)-peptidyl-Glu-Phe-Leu-Glu-Lys] gave a C0 of 95.8 nM, a Vd of 0.0921 L/kg, a clearance of 1.2 mL/h/kg and a half-life of 53.2 h. In data set [2], the “4 h Cholesterol Efflux Emax” value is recorded as 99% and the EC50 stood at 290 nM.
